In brackets after ≈: the same amount, converted by molar mass.

The conditions of the data set: buffer; pH 7.4; 200.0 µM.
The solubility (kinetic) is the concentration staying in solution when a stock, usually in DMSO, is diluted into the medium. In the case of `Brc1cc(Br)c2nc3c(cc2c1)CCC3`, the solubility (kinetic) turned out to be 1.9 µg/mL (≈ 5.81 µM).

In turn, `CCCCNC(=O)C1c2ccccc2Oc2ccccc21` had a kinetic solubility below 0.6 µg/mL.

`CCOC(=O)c1oc2nc(CC(C)C)c3c(c2c1N)CCCC3` displayed a solubility (kinetic) of 1.4 µg/mL (≈ 4.42 µM).

Take `O=C(CSc1ccc(Cl)cc1)NC(=O)c1ccccc1`: the solubility (kinetic) turned out to be 6.4 µg/mL (≈ 20.9 µM).

The compound `NC(=O)c1ccc(NC(=O)COC(=O)c2cc3ccccc3cc2O)cc1` returned a solubility (kinetic) of 10.1 µg/mL (≈ 27.7 µM).

As for `CC(=O)Nc1ccc(S(=O)(=O)Nc2cc(Cl)ccc2N2CCOCC2)cc1`, the solubility (kinetic) was above 61.5 µg/mL.

`O=C(CN1CCOCC1)Nc1ccccc1C(=O)Nc1ccccc1` displayed a kinetic solubility of 39.1 µg/mL (≈ 115 µM).

In turn, `CC(C)(CNC(=O)c1cccs1)N1CCOCC1` registered a kinetic solubility above 40.3 µg/mL.

As to `Cc1ccc(S(=O)(=O)NC(=O)c2ccccc2F)cc1`, the solubility (kinetic) is above 44 µg/mL.

In turn, `CCOC(=O)/C(C#N)=C1\C(=O)N(Cc2ccccc2)c2ccccc21` had a kinetic solubility of 1.3 µg/mL (≈ 3.91 µM).

Turning to `C=CCn1c(O)c(C(C)=Nc2ccc(C(=O)O)cc2)c(=O)[nH]c1=O`, the solubility (kinetic) is above 49.4 µg/mL.

Turning to `CCSC1=C(C#N)C2(CCCCC2)C2=C(CC(C)(C)CC2=O)N1`, the solubility (kinetic) was 1 µg/mL (≈ 3.03 µM).

In turn, `S=C(NCc1ccccc1)N1CCn2cccc2C1c1ccncc1` (centres undefined) showed a kinetic solubility of 45.2 µg/mL (≈ 130 µM).

For `CN(C)CCO[C@@H](c1ccc(Cl)cc1)c1ccccn1.O=C(O)/C=C\C(=O)O`, the solubility (kinetic) was above 61 µg/mL.

`COc1ccccc1Oc1nc([N+](=O)[O-])nn1CC(N)=O` displayed a kinetic solubility above 44 µg/mL.

Consider `COC(=O)C(O)(c1ccc(NC(=O)c2ccccc2)cc1)C(F)(F)F` (centres undefined), for which the solubility (kinetic) was found to be 42.9 µg/mL (≈ 121 µM).

Turning to `COc1cc2c(cc1OC)C(c1cccc(Cl)c1)CC(=O)N2` (centres undefined), the kinetic solubility was determined as 38 µg/mL (≈ 120 µM).

`Cc1cc(NC(=O)c2coc(=O)c(Br)c2)ccc1C(C)C` yielded a kinetic solubility of 2.5 µg/mL (≈ 7.14 µM). This solubility kinetic is about 15-fold lower than that of the compound before.

For the compound `CN(C)c1ccc(C(=O)OCC(=O)N2CCCC2)cc1`, the kinetic solubility was above 41.5 µg/mL.

As for `CC(=O)c1cccc(NC(=O)c2ccc3c(c2)CCCC3)c1`, the kinetic solubility was 0.8 µg/mL (≈ 2.73 µM).

`Cc1ccc(C(CC(=O)N2CCCCC2)c2ccccc2)c(O)c1C` (centres undefined) returned a solubility (kinetic) of 3.8 µg/mL (≈ 11.3 µM).

`COc1ccc(C(=O)N2CCCC(C(=O)O)C2)c2ccccc12` (centres undefined) yielded a solubility (kinetic) above 47 µg/mL.

On to `CC1CN(C(=O)Cn2c(=O)oc3ccccc32)CC(C)O1` (centres undefined), for which the solubility (kinetic) was 43.1 µg/mL (≈ 148 µM).

For the compound `Cc1cccc(CNC(=O)C2CCC(=O)N(C3CCCCCC3)C2)c1` (centres undefined), the solubility (kinetic) was above 51.4 µg/mL.

Turning to `COC(=O)c1nn(-c2ccc(OC)cc2)ccc1=O`, the kinetic solubility is above 39 µg/mL.

Turning to `N#Cc1ccc(S(=O)(=O)NC2CCCCNC2=O)cc1` (centres undefined), the solubility (kinetic) was above 44 µg/mL.

`CC(=O)c1ccc(NC(=O)C[n+]2cccc(C)c2)cc1.[Cl-]` returned a kinetic solubility above 45.7 µg/mL.

In turn, `CN(C)c1ccc(NC(=O)CN2CCN(c3ccc(F)cc3)CC2)cc1` came in with a solubility (kinetic) of 2.5 µg/mL (≈ 7.01 µM).

The compound `Cc1nc(N/C(N)=N/S(=O)(=O)c2ccccc2)nc2ccccc12` had a solubility (kinetic) of 3.6 µg/mL (≈ 10.5 µM).

Consider `Oc1cccc2ccc(N3CCOCC3)nc12`, for which the solubility (kinetic) is above 34.5 µg/mL.

As for `COc1ccc(N/C=C2\CCc3ccccc3C2=O)cc1`, the kinetic solubility came to 2 µg/mL (≈ 7.16 µM).

In the case of `COc1ccccc1OCCNC(=O)c1ccco1`, the kinetic solubility worked out at 33.4 µg/mL (≈ 128 µM). Against the preceding compound, the solubility kinetic is about 17-fold higher.

`COc1ccc(NC(=O)CNC(=O)c2cccs2)cc1Cl` yielded a solubility (kinetic) of 2.7 µg/mL (≈ 8.31 µM).

`Cc1cccc(NC(=O)CCS(=O)(=O)c2ccc(Cl)cc2)c1` gave a kinetic solubility of 5.5 µg/mL (≈ 16.3 µM).

Consider `Cc1ccnc(NS(=O)(=O)c2cc(C(F)(F)F)ccc2Cl)c1`, for which the solubility (kinetic) was 1.7 µg/mL (≈ 4.85 µM).

In turn, `Cc1cc(OCCN2CCOCC2)ccc1Cl` registered a solubility (kinetic) of 25.9 µg/mL (≈ 101 µM).

`CCOC(=O)N1CCN(c2nc(-c3ccccc3)c3ccccc3n2)CC1`: the solubility (kinetic) was below 0.2 µg/mL.

The compound `Cc1nc(-c2ccccc2Cl)sc1C(=O)/C=C/N(C)C` gave a solubility (kinetic) of 10.8 µg/mL (≈ 35.2 µM).

`CCN(C(=O)c1ccc(=O)n(C)n1)c1c(N)n(Cc2ccccc2)c(=O)[nH]c1=O` came in with a kinetic solubility above 59.5 µg/mL.

In turn, `COc1ccc(NC(=O)CSCCc2ccccn2)cc1OC` registered a kinetic solubility of 48.7 µg/mL (≈ 146 µM).

Regarding `Cc1ccc(NC(=O)NC2CCCCCCC2)c(C)c1`, the kinetic solubility is below 0.3 µg/mL.

With `CNC(=O)c1ccc(CNC(=O)OCc2ccccc2)cc1`, the solubility (kinetic) was above 44.8 µg/mL.

The compound `CN1CCN(S(=O)(=O)c2ccccc2)CC1` yielded a kinetic solubility of 34.6 µg/mL (≈ 144 µM).

In the case of `CC(C(=O)N1CCc2ccccc21)N1CCN(Cc2ccccc2)CC1` (centres undefined), the kinetic solubility is above 52.4 µg/mL.

With `O=C(/C=C/c1c(Cl)cccc1Cl)N1CCOCC1`, the solubility (kinetic) was above 42.9 µg/mL.

Regarding `Cc1ccc(CNc2cccnc2)cc1`, the kinetic solubility was above 29.7 µg/mL.

`O=C(NCc1ccc(F)cc1)Nc1cccc([N+](=O)[O-])c1`: the solubility (kinetic) amounted to 1 µg/mL (≈ 3.46 µM).

Compound `NC(=O)C1CCCN1S(=O)(=O)c1ccc2ccccc2c1` (centres undefined) gave a kinetic solubility above 45.7 µg/mL.

As for `COc1ccccc1N1CCN(C(=O)c2c(-c3c(F)cccc3Cl)noc2C)CC1`, the solubility (kinetic) is 52.9 µg/mL (≈ 123 µM).

In turn, `O=C(Nc1ccc(Cl)cc1)c1csc(Cc2ccccc2)n1` gave a solubility (kinetic) of 1.1 µg/mL (≈ 3.35 µM). Against the preceding compound, the solubility kinetic is about 48-fold lower.

`O=C(CNC(=O)c1ccc2ccccc2c1)NCc1ccccc1F`: the solubility (kinetic) came out at 7.8 µg/mL (≈ 23.2 µM).

The compound `CC1=C([N+](=O)[O-])C(c2ccc(Cl)cc2)NC(=O)N1` (centres undefined) registered a kinetic solubility above 40.2 µg/mL.

In the case of `CS(=O)(=O)N1CCN(C(=O)CSc2ccccc2)CC1`, the kinetic solubility is above 47.2 µg/mL.

`CC(=O)Nc1sc(C)c(C)c1C(=O)OCC(=O)Nc1ccc(S(N)(=O)=O)cc1` showed a kinetic solubility of 8.4 µg/mL (≈ 19.7 µM).

As for `O=C(NC1CCCCC1)c1cc(-c2ccccc2Cl)on1`, the solubility (kinetic) was below 0.3 µg/mL.

Compound `O=C(Cc1cccc2ccccc12)Nc1cc(C(=O)O)cc(C(=O)O)c1` showed a solubility (kinetic) above 52.4 µg/mL.

Take `Cc1cc(C(=O)NC(C)C2CCCO2)no1` (centres undefined): the solubility (kinetic) is above 33.6 µg/mL.

Consider `O=S(=O)(NCCCN1CCOCC1)c1ccc(Cl)cc1`, for which the solubility (kinetic) is above 47.8 µg/mL.

Compound `NS(=O)(=O)c1ccc(CNC(=O)Cc2ccccc2[N+](=O)[O-])cc1` returned a solubility (kinetic) of 50.1 µg/mL (≈ 143 µM).

Compound `Brc1cccc2sc(N3CCCC3)nc12` registered a kinetic solubility of 5.2 µg/mL (≈ 18.4 µM).

Regarding `COc1ccc(CC(=O)Nc2cccc3ccccc23)cc1OC`, the kinetic solubility stood at 7.1 µg/mL (≈ 22.1 µM). This solubility kinetic and that of the compound before are within 1.5-fold of each other.

Regarding `Cc1cc(C)cc(NC(=S)N(CCN(C)C)Cc2cccs2)c1`, the solubility (kinetic) worked out at 43.7 µg/mL (≈ 126 µM).

The compound `COc1ccccc1NC(=O)COc1cccnc1[N+](=O)[O-]` gave a kinetic solubility of 4.3 µg/mL (≈ 14.2 µM).

Take `O=C(c1cc2cc(F)ccc2[nH]1)N1CCN(c2ccc(F)cc2)CC1`: the solubility (kinetic) was found to be 0.3 µg/mL (≈ 0.879 µM).

`COc1cc(C2NC(=O)NC(C)=C2[N+](=O)[O-])cc(OC)c1OC` (centres undefined) came in with a solubility (kinetic) of 47.3 µg/mL (≈ 146 µM).

On to `COC(=O)c1cccnc1Oc1ccccc1`, for which the kinetic solubility worked out at 26.5 µg/mL (≈ 116 µM).

On to `CCOc1ccc(NC(=O)C(C)Sc2nccn2C)cc1` (centres undefined), for which the kinetic solubility is above 45.8 µg/mL.

Compound `COC(=O)Cc1c(C)nc(SCc2ccccc2)[nH]c1=O` showed a solubility (kinetic) of 16.4 µg/mL (≈ 53.9 µM).

`CC(=O)c1ccccc1OCCOc1ncnc2sccc12` displayed a solubility (kinetic) above 47.2 µg/mL.

In turn, `NC(=NCc1ccco1)NC(=O)c1ccc(Cl)cc1` yielded a solubility (kinetic) above 41.7 µg/mL.

For `O=C(NCc1ccc(F)cc1)c1cc(C(=O)C2CC2)c[nH]1`, the kinetic solubility was determined as 4.2 µg/mL (≈ 14.7 µM).

For the compound `O=C1NC(=O)N(Cc2ccccc2F)C1=O`, the solubility (kinetic) is above 33.3 µg/mL.

In turn, `CC(C)(C)C(=O)N1CCN(c2ccnc3cc(Cl)ccc23)CC1` gave a kinetic solubility of 45 µg/mL (≈ 136 µM).

`CC(=O)CSc1nnc2cc(C)c3ccccc3n12` yielded a solubility (kinetic) above 40.7 µg/mL.

Values taken from PubChem BioAssay AID1996.
